Source: patent US20040048747A1, “Product formulation and method of its application for increasing the efficiency of systemic herbicides” (priority 2000, published 2004)

Columns and labels:
Assay type in all cases: in vivo
[1] = tested on: dandelion (Taraxacum cordátum Palmgr.); assay: Greenhouse pot spray test, selected formates with selected systemic herbicides (Example 3), dandelion; conditions: for desiccation of the leaves / damage (necrosis): formates 3000 ml (g) per decar, 6, 14 and 21 days after spraying
Description: Potassium diformate in a 50% water/volume solution (coded K-diform in the enclosed graphs). Potassium formate (50% w/v) (coded K-form in the enclosed graphs). Solid calcium formate solid was dissolved in water and coded Ca-form in the enclosed graphs. Dose rates applied were: 0 and 3000 ml (g) per decar (10^3 m^2).
“Roundup Bio” (360 gram/litre glyphosate), “Arsenal 250” (250 gram/litre imazapyr) and “Titus” (250 gram/kg rimsulfuron). The herbicides were applied at dose rates: 10%-40% of full rate:
Adjuvant: 0.1% wetting agent (“DP-spredemiddel”)
The formates, herbicides and adjuvants were mixed before spraying and applied at a calculated spray volume of 50 litre per decar (10^3 m^2). Seven pots were given each treatment.
The investigations were done on dandelion (Taraxacum cordátum Palmgr.):
The dandelion seeds were sown June 20 and transplanted to 13 cm plastic pots, one plant per pot. The plants were raised in a greenhouse. The spraying was carried out August 1 and the plants kept in greenhouse until harvest. Greenhouse conditions: 20-25° C. in 16 hrs, 14° C. in 8 hrs. Day length: 16 hrs artificial light.
Assessments of damage (necrosis): 6, 14 and 21 days after treatment (DAT). Regrowth and fresh weight were assessed 21 days after spraying.

[2] = tested on: Dandelion (Taráxacum cordátum); assay: Greenhouse pot spray test, potassium diformate and glyphosate combinations (Example 1), dandelion; conditions: glyphosate alone, compared with the combination
Text: (§1) The aim of this experiment was to investigate if a small dose of glyphosate, a foliage applied systemic herbicide, could extend the herbicide effect of potassium diformate. This is in particular important in perennial weeds, but also to have a complete kill of annual weeds.
(§2) Control of annual weeds will be essential in garden paths, roads, roadsides and other areas covered with gravel, bricks or flag stones. The weed must be totally killed since there is no competition from crop plants like in crop use situations. The aim of the experiment in greenhouse was to find methods to have optimal herbicide effect of K-diformate on different weed species and rape, which served as a model weed.
(§3) Seeds were sown in trays, and 2 seedlings were transplanted to 12 cm pots. The soil used was a mixture of 84% sphagnum, 10% sand and 6% clay. The pH was 5.8 and the soil was amended with balanced nutrients.
(§4) The temperature was set to 20° C. for 16 hours, 14° C. for 8 hours, but it varied ±3° C. Light period followed the natural day lengths, but artificial light was supplied 16 hours per day.
(§5) A wetting agent (0.1%) was used in order to secure complete contact with the plants to be treated. […]
(§6) Damage or injury of the plants was visually assessed after the following scale: […]

[3] = tested on: Poa annua; assay: Greenhouse pot spray test, potassium diformate and glyphosate combinations (Example 1), Poa annua; conditions: glyphosate alone, compared with the combination
Text: as §1, §2, §3, §4, §5, §6

Row | Compound | desiccation of the leaves / damage (necrosis) [1] | herbicide effect (speed and efficiency) [2] | herbicide effect (speed and efficiency) [3] | regrowth after mixing herbicide with formate ([1]; 21 days after spraying, lowest dose rates of Roundup and Titus, compared between formates)
1 | O=C[O-].O=C[O-].[Ca+2] [Ca-formate, calcium formate] | even less effective than K-formate |  |  | 
2 | O=C[O-].[K+] [K-formate, Potassium formate] | less effective |  |  | 
3 | O=C(O)CNCP(=O)(O)O [glyphosate] |  | much slower and very much less efficient | much slower and very much less efficient | 
4 | O=CO.O=C[O-].[K+] [potassium diformate] | desiccated the leaves quickly |  |  | higher after mixing with K-diformate than mixing with Ca- or K-formate
